In ChEMBL document CHEMBL1201862, “PubChem BioAssay data set” (2004):
Calls of active or inactive are those of the source.

What was measured:
[1] = cytotoxicity toward NIH3T3 fibroblasts, dose response, counter-screen, cell-based, ATP luminescence, mouse fibroblasts (AID 2010); type: functional;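 note: cells exposed to compound for about 90 hours before reading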
[2] = inhibitors of intracellular T. cruzi replication, confirmation, NIH3T3 host cells, beta-gal luminescence (AID 2044); type: functional, cell-based;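 note: intracellular parasites grown in NIH/3T3 mouse fibroblasts as host cells; luminescent beta-galactosidase reporter signal from transgenic T. cruzi replicating inside host cells; inhibitors lower the luminescence signal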
Estrogen receptor beta [3] = target: T1, Estrogen receptor beta (Homo sapiens, UniProt Q92731); experiment: ERβ–SRC-3 coactivator interaction inhibitors, confirmation, orthogonal assay, biochemical, ELISA, streptavidin-HRP readout (AID 1060)
T1 sequence (Q92731 whole entry): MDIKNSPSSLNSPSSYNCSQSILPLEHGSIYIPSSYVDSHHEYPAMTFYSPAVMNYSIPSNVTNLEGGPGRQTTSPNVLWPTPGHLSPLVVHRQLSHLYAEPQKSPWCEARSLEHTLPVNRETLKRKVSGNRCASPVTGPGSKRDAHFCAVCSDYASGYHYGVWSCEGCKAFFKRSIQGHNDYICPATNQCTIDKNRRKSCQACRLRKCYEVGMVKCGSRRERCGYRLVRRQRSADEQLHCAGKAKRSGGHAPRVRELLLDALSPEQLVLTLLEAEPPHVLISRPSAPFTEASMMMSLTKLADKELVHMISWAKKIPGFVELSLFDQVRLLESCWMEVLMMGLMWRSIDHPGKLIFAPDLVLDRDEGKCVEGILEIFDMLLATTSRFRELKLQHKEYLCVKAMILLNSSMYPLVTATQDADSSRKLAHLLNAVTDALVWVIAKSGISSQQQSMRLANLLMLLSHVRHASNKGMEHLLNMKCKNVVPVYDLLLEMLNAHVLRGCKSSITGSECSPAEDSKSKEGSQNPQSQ

Estrogen receptor beta [4] = target: T1, Estrogen receptor beta
SUMO-activating enzyme [5] = target: T2, SUMO-activating enzyme (Homo sapiens, UniProt Q9UBT2); experiment: SUMOylation inhibitor hit validation, confirmation, SUMOylation inhibitor project, biochemical, AlphaScreen (AID 2018); type: functional
T2 sequence (Q9UBE0 whole entry): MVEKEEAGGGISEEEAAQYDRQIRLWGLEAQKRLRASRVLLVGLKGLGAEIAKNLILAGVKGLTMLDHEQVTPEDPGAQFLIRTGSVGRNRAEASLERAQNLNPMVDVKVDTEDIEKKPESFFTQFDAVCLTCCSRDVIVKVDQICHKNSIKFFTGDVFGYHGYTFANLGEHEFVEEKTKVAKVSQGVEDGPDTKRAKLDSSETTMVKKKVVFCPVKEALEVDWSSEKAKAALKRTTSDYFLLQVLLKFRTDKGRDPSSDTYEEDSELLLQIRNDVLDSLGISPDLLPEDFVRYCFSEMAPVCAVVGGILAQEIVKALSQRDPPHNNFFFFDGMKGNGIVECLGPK
T2 sequence (Q9UBT2 whole entry): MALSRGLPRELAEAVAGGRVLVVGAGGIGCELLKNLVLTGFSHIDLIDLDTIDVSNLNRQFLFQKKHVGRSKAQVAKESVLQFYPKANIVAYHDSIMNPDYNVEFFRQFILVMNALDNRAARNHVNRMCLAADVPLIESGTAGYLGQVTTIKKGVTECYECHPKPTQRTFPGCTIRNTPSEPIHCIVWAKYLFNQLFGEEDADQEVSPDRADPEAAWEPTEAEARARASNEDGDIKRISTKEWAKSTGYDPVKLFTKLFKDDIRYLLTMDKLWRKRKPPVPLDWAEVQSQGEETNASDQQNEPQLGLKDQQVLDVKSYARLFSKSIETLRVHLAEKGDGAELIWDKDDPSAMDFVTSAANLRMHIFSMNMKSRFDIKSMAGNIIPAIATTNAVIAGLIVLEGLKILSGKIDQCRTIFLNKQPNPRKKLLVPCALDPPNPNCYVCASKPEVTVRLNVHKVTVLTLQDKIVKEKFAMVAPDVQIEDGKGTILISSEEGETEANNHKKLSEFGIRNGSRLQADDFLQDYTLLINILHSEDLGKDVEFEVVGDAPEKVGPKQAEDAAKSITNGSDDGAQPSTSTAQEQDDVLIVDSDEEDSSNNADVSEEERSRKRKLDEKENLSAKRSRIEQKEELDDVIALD

[6] = Luminescence Cell-Based Dose Response HTS to Identify Activators of Luciferase Translation or Activity in H4 […] Cells. [Related pubchem assays: 1829 (Project Summary), 1814 (Primary HTS)]; type: functional
SUMO-activating enzyme [7] = target: T2, SUMO-activating enzyme; experiment: inhibitors of in vitro SUMOylation cascade, primary screen, biochemical, HTRF, uHTS (AID 2006); type: protein-complex assay
[8] = target: T3, Replicative DNA helicase DnaB (Mycobacterium tuberculosis, UniProt P9WMR3); experiment: DnaB intein splicing inhibitors, dose response, biochemical, cell-free fluorescence (AID 449749); type: functional
T3 sequence (P9WMR3 whole entry): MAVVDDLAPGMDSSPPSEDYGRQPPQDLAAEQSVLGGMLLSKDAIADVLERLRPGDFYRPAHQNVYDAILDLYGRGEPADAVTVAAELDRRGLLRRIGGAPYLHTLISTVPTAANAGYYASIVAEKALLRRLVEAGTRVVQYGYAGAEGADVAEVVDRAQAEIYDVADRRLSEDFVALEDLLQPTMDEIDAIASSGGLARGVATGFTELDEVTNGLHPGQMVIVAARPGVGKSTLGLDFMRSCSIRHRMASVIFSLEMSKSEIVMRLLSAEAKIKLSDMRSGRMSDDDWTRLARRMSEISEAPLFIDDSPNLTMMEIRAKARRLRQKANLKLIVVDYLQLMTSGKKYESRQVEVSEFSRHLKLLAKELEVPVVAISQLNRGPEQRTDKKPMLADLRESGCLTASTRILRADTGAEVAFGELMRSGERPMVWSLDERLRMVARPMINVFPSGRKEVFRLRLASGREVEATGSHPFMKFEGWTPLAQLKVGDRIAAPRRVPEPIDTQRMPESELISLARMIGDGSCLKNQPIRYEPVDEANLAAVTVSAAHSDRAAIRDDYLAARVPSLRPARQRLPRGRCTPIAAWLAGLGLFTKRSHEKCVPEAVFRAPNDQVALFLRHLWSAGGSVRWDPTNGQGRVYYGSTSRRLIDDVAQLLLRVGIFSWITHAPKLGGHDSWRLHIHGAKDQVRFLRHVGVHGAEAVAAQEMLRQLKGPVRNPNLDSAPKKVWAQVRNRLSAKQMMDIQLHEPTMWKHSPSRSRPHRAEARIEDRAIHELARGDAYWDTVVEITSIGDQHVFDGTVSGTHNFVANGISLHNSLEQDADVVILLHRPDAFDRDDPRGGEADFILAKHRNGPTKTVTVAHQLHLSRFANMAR

[9] = target: T4, Serine/threonine-protein phosphatase (Homo sapiens, UniProt Q9BPW0); experiment: PP5 phosphatase inhibitors, dose response, biochemical, fluorescence (AID 2395)
T4 sequence (Q9BPW0 whole entry): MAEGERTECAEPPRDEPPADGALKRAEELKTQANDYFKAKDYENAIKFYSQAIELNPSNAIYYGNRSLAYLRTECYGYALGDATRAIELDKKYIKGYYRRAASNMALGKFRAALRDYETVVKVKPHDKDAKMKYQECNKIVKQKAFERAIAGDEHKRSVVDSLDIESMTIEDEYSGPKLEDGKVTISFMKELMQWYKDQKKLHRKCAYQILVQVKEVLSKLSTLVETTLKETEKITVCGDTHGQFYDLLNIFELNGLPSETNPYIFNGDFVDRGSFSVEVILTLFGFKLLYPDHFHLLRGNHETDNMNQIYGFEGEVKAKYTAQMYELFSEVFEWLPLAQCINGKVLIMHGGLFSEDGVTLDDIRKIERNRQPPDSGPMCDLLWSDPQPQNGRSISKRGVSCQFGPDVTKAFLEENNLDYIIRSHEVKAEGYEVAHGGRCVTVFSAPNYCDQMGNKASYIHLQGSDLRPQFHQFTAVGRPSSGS

[10] = target: Serine/threonine-protein phosphatase PP1-alpha catalytic subunit (Homo sapiens, UniProt P62136); experiment: PP1 phosphatase inhibitors, dose response, biochemical, fluorescence (AID 2394)
Chain of Serine/threonine-protein phosphatase PP1-alpha catalytic subunit (P62136 whole entry): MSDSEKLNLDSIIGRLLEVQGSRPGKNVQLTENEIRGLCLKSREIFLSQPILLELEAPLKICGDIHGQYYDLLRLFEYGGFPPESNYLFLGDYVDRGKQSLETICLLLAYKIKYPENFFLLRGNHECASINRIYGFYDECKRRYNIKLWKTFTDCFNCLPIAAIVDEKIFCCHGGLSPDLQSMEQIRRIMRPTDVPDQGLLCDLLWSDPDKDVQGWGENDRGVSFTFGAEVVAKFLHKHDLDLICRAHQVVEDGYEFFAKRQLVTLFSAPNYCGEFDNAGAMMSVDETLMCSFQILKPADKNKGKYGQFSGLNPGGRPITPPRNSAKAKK

[11] = Luminescence Cell-Based Dose Confirmation HTS to Identify Activators of 5'UTR Stem-Loop Driven Alpha-Synuclein mRNA Translation in H4 Neuroglioblastoma Cells. [Related pubchem assays: 1829 (Project Summary), 1814 (Primary HTS)]; type: functional
H4 = experiment: Luminescence Cell-Based Dose Response HTS to Identify Activators of 5'UTR Stem-Loop Driven Prion Protein mRNA Translation in H4 Neuroglioblastoma Cells. [Related pubchem assays: 1829 (Project Summary), 1814 (Primary HTS)]; type: functional; details: Homo sapiens
Protein RecA = target: T5, Protein RecA (Mycobacterium tuberculosis, UniProt P9WHJ3); experiment: Fluorescence Cell-Free Homogeneous Dose Retest to Identify Inhibitors of RecA-Intein Splicing Activity. [Related pubchem assays (depositor defined):AID2097, AID2223, AID489010, AID492950]; type: functional
T5 sequence (P9WHJ3 whole entry): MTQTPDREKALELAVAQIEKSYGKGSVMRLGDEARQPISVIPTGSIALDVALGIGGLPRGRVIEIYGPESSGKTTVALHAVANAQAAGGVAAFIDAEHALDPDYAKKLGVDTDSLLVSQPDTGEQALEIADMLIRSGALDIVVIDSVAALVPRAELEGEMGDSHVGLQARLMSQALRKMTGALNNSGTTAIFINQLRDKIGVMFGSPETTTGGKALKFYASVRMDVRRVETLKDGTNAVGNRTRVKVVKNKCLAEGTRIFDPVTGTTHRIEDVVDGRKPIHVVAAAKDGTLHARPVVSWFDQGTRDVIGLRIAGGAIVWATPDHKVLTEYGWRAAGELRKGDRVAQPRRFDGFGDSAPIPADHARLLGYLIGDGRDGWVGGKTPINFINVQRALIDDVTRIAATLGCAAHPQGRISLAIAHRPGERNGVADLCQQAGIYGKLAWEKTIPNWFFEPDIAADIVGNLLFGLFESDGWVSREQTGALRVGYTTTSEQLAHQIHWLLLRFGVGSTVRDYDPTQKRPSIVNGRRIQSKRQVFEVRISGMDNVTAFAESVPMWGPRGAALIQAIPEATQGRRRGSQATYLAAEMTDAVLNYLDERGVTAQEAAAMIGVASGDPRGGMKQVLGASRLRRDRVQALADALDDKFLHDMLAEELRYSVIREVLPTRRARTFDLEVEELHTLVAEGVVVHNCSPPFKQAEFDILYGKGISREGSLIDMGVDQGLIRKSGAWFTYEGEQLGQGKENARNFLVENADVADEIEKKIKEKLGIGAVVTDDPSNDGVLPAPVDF

[12] = target: T6, Apoptotic protease-activating factor 1 (Homo sapiens, UniProt O14727); type: functional
T6 sequence (O14727 whole entry): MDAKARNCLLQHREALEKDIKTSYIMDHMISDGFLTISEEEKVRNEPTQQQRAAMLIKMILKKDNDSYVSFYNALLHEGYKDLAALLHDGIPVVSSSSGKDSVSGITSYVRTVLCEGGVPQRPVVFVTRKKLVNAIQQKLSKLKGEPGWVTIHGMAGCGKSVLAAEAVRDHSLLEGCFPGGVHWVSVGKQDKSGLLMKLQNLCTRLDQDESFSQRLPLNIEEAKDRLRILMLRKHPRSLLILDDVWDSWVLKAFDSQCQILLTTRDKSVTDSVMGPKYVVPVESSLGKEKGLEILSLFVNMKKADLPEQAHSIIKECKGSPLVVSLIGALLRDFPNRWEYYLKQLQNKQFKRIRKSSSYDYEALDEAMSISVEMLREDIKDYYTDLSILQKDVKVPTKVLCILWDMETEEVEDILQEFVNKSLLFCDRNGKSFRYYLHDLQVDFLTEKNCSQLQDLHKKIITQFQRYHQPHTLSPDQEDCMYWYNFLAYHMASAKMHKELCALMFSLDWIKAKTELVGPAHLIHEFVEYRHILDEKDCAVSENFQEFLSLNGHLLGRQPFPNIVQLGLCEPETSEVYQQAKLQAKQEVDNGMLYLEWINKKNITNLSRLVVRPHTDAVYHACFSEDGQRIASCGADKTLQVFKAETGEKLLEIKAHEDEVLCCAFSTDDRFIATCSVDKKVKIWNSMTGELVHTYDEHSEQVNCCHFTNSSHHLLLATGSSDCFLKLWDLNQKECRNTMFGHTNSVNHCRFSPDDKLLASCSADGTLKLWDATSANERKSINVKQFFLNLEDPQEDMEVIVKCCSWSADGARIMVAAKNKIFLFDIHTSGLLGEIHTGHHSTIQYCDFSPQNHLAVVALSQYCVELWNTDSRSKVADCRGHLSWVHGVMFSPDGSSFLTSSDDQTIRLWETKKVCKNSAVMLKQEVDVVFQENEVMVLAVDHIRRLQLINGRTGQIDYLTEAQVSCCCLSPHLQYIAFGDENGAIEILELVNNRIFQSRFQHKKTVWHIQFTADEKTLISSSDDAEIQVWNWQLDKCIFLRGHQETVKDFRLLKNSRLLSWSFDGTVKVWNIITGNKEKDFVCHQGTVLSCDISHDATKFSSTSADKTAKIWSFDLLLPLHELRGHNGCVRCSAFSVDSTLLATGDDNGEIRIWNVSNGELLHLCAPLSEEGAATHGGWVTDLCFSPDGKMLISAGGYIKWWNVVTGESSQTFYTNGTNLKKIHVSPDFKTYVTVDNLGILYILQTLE

Bcl-2-like protein 10 = target: T7, Bcl-2-like protein 10 (Homo sapiens, UniProt Q9HD36); experiment: displacers of TR3 peptide from Bcl-B, primary screen, selectivity assay for Bfl-1 inhibitor project, biochemical, fluorescence polarization, FITC-TR3 peptide (AID 748);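 note: fluorescence polarization from a fluorescein-labelled TR3 peptide binding purified Bcl-B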
T7 sequence (Q9HD36 whole entry): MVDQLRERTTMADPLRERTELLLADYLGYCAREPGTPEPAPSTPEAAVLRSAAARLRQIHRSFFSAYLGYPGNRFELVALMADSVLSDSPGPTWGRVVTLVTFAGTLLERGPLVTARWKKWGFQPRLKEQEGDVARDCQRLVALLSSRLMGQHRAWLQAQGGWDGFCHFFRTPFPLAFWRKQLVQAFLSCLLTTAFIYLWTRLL

Genome polyprotein = Genome polyprotein (dengue virus type 2, UniProt P29990); experiment: Dengue-2 NS5 methyltransferase inhibitors, primary screen, biochemical, confirmation dose response (AID 588689); type: functional
Chain of Genome polyprotein (P29990 2492-3391 limits assumed): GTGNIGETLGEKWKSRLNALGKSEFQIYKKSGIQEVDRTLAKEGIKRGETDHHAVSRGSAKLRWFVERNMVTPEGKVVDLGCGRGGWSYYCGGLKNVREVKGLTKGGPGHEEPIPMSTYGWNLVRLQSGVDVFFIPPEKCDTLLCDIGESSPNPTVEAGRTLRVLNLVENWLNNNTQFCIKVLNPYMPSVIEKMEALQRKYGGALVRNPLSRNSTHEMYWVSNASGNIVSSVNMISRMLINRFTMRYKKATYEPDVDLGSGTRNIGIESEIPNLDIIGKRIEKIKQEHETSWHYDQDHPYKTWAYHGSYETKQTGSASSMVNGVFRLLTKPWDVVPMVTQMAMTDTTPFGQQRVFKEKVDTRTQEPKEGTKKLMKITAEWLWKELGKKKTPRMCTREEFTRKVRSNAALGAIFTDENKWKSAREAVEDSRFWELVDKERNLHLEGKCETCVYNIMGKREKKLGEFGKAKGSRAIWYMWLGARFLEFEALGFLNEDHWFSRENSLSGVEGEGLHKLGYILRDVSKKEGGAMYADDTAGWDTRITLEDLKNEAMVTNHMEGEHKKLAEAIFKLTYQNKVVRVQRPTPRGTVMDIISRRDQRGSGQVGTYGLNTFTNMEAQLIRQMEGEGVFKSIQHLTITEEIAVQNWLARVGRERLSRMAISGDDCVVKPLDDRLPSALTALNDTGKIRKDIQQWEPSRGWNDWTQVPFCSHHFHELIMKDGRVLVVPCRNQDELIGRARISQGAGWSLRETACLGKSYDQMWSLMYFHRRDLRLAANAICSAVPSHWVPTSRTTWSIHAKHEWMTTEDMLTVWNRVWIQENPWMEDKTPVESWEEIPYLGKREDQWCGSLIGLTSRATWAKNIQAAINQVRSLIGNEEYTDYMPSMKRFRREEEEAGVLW

Ion channel NompC = Ion channel NompC (Danio rerio, UniProt Q7T1G6); experiment: Fluorescence counterscreen assay for TRPML3 agonists: dose response cell-based high-throughput screening assay to identify agonists of the transient receptor potential channel N1 (TRPN1). [Related pubchem assays: 1526, 1424, 1448 ]; type: functional
Chain of Ion channel NompC (Q7T1G6 whole entry): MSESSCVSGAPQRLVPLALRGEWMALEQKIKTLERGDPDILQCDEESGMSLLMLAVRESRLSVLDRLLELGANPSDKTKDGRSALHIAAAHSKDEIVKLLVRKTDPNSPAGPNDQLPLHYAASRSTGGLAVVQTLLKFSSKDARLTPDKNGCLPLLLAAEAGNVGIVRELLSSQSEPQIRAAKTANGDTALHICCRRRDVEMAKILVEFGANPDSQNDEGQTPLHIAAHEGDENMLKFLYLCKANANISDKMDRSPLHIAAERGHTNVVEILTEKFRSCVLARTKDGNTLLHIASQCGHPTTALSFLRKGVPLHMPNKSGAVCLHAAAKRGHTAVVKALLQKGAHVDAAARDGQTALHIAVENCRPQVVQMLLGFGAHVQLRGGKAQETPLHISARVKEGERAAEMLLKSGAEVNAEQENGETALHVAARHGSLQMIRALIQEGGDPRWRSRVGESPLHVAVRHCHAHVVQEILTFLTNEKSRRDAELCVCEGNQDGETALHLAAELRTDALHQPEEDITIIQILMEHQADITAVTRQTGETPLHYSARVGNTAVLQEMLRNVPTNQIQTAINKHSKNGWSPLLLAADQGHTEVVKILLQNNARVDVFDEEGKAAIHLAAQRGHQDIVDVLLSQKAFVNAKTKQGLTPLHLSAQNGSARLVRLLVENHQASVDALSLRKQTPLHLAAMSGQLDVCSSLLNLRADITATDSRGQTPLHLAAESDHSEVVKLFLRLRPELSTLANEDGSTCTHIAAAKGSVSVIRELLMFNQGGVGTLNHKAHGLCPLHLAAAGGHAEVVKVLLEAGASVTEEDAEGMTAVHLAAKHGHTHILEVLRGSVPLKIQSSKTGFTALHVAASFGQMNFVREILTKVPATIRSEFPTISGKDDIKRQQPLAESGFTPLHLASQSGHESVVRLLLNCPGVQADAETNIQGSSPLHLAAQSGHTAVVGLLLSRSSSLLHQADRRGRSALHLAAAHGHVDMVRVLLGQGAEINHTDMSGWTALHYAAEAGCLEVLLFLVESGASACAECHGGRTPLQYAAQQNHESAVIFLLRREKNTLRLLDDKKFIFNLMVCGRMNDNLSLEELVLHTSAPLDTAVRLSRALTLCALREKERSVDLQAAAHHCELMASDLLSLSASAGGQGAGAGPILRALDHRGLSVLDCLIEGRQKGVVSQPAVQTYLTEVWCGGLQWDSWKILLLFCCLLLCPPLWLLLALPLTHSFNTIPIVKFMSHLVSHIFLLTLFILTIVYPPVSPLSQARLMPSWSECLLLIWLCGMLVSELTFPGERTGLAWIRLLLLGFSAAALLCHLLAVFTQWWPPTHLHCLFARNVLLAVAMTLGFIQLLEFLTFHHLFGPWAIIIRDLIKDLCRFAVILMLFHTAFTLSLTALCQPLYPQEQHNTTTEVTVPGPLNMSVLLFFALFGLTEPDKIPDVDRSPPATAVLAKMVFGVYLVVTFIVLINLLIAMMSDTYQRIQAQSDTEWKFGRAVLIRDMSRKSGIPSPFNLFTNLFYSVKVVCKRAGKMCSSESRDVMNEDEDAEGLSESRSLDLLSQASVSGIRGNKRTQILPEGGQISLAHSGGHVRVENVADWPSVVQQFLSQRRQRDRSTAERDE

Mucolipin-3 = target: T8, Mucolipin-3 (Homo sapiens, UniProt Q8TDD5); experiment: Dose response cell-based high-throughput screening assay for agonists of the transient receptor potential channel ML3 (TRPML3). [Related pubchem assays: 1526, 1424, 1448 ]; type: functional
T8 sequence (Q8TDD5 whole entry): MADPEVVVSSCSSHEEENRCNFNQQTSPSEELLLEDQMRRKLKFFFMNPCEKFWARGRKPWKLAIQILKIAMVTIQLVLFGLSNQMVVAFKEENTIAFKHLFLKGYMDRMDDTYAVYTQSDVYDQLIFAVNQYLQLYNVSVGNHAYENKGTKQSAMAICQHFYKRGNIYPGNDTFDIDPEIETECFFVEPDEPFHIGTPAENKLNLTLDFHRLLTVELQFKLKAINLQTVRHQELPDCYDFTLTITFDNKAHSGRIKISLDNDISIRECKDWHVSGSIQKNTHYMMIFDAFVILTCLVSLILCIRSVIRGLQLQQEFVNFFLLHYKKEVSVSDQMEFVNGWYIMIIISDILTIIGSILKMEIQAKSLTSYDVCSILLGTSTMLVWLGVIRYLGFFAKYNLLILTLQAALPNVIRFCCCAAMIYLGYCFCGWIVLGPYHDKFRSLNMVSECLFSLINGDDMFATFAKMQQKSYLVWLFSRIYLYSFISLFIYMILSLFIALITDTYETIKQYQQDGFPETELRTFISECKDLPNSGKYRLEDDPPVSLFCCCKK

O=C(CNC1CCN(Cc2ccccc2)CC1)Nc1ccc(S(=O)(=O)N2CCCCC2)cc1
EC50 (cells): 0.019 µM (active)
EC50 [1]: > 30 µM (not active)
EC50 [2]: < 0.1 µM (active)

Oc1c2c(nc3ccccc13)C(=C1CCCC1)CC2
IC50 (Estrogen receptor beta [3]): > 109 µM (not active)
IC50 (Estrogen receptor beta [4]): 1.69 µM (active)

O=C1c2ccccc2C(=O)C12OC2c1ccc(Cl)cc1 (stereo unspecified)
IC50 (SUMO-activating enzyme [5]): 7.05 µM (active)
EC50 [6]: > 120 µM (not active)
IC50 (SUMO-activating enzyme [7]): 21.2 µM (active)
AC50 [8]: 1.61 µM (active)
IC50 [9]: > 2.48 µM (active)
IC50 [10]: > 67 µM (not active)
EC50 [11]: > 120 µM (not active)
EC50 (H4): > 120 µM (not active)
EC50 (Protein RecA): 22.2 µM (inconclusive)

Nc1cc2nsnc2cc1Br
IC50 [9]: > 2.48 µM (active)
IC50 [10]: > 67 µM (not active)
IC50 [12]: 3.21 µM (active)
IC50 (Bcl-2-like protein 10): 13.3 µM (active)
IC50 (Genome polyprotein): 48.7 µM (active)

CCOC(=O)c1cnn(-c2nc(SC)nc3sc4c(c23)CCC4)c1N
IC50 (Estrogen receptor beta [3]): 0.069 µM (not active)
IC50 (Estrogen receptor beta [4]): > 50 µM (not active)

Cc1ccc(SCCOCCN2CCc3ccccc3C2)cc1
EC50 (cells): 0.037 µM (active)
EC50 [1]: > 60 µM (not active)
EC50 [2]: < 0.1 µM (active)

O=C1CCCN1CC#CCN1CCCC1 [OXOTREMORINE]
EC50 (Ion channel NompC): > 29.9 µM (not active)
EC50 (Mucolipin-3): > 29.9 µM (not active)
